Measured values: patent US11380440B1, “Marker screening and signal detection” (Cerner Innovation, Inc., priority 2011, dated 2022)

Tested on: patients admitted to hospital with AMI

Row | SMILES | actual number of deaths (386 exposed patients of the 6,699 cohort (FIG. 4A column 415)) | expected number of deaths (Monte Carlo simulation, 2,000 burn-in and 50,000 iterations (FIG. 4A column 420)) | in-house mortality percentage (count of deaths from the number receiving exposure) (Table 500 column 520, cohort of 6,699 AMI inpatients, 5.7% of the cohort died)
1 | O=C(O)c1cn(C2CC2)c2cc(N3CCNCC3)c(F)cc2c1=O [Ciprofloxacin] | 129 | 28.3 | 
2 | CC(C)c1c(C(=O)Nc2ccccc2)c(-c2ccccc2)c(-c2ccc(F)cc2)n1CC[C@@H](O)C[C@@H](O)CC(=O)O [atorvastatin] |  |  | 3.4%
